Source: patent US20100104580A1, “Altered Immunogenic Landscape in HIV-1 Envelope Proteins” (priority 2008, published 2010)

Columns and labels:
[1] = system: gp 120 from two other HIV-1 strains; test: Affinity for gp120 of other strains; type: binding
Text: HIV-1YU2gp120 was produced as described previously in Drosophila S2 cells (Biorn et al., 2004, Biochem. 43:1928-1938; Pancera et al., 2005, J Virol. 79:9954-9969). Cells were spun down and supernatant sterile filtered. Supernatant was purified over an F105-antibody column (NHS-activated Sepharose, Amersham; F 105 antibody coupled according to manufacturer's instructions). […] Supernatant from the hollow fiber bioreactor was purified with an SP-column and bound fractions were then run over a Q-column. Unbound material was concentrated and analysed by SDS-PAGE. The gp120 proteins from HIV-1 SF162 and HIV-192UG037-08 were used in previous inhibitor binding studies (Cocklin et al., 2007, J Virol. 81:3645-3648); HIV-1SF162 gp120 was obtained through NIH AIDS Research and Reference Reagent Program from DAIDS and NIAID, while HIV-192UG037-08 gp120 was a gift as reported in Cocklin et al. (2007, J Virol. 81:3645-3648). The following monoclonal antibodies were obtained through the NIH AIDS Research and Reference Reagent Program: 2G12 from Dr Hermann Katinger; F105 from Dr Marshall Posner and Dr Lisa Cavacini; b12 from Dr Dennis Burton and Carlos Barbas.

[2] = target: gp120 binding to both host cell receptors (CD4 and CCR5) (Human immunodeficiency virus type 1 group M subtype B, UniProt P35961); test: Dual antagonism of gp120 binding to host cell receptors; parameters: species or system HIV-1; conditions: inhibiting gp120 binding to CD4 and CCR5
[3] = target: T1, gp120YU2 (Human immunodeficiency virus type 1 group M subtype B, UniProt P35961); type: binding, HIV-1; conditions: HNG-156 at the concentrations tested (0.6 μM elsewhere in the source)
T1 construct: for HIV-1 YU2 gp 120 envelope protein; made in house; host or cells: Drosophila S2 cells
Protocol: b12 binding to gp120YU2 was assayed by SPR using a Biacore 3000 instrument. […] Buffer (PBS+0.005% Tween-20) injection and control surface responses were subtracted from the injection of gp120 over b12 and binding sensorgrams were obtained.
Inhibition curves were generated from response at the end of association. b12 was injected at 100 ul/min with 2.5 min. association and 2 min. dissociation and binding curves were generated from responses at the 100th second of dissociation.
100 ng gp120YU2 was adsorbed to wells. […] Bound antibody was detected with species specific secondary antibody-HRP, and read with OPD assay at 450 nm.

[4] = system: interaction between gp120 and four-domain soluble CD4 (4dCD4); conditions: cited from earlier work
[5] = system: interaction between gp120 and 17b; conditions: cited from earlier work
[6] = female macaques; cited from earlier work
[7] = system: M-tropic and T-tropic strains of HIV-1, SIV, FIV; conditions: cited from earlier work
[8] = system: HIV-1 BaL; conditions: recombinant CV-N; cited from earlier work
[9] = system: SHIV89.6P; conditions: cited from earlier work

With `CC[C@H](C)[C@H](NC(=O)[C@@H](N)CCCNC(=N)N)C(=O)N[C@@H](CC(N)=O)C(=O)N[C@@H](CC(N)=O)C(=O)N[C@H](C(=O)N1C[C@@H](n2cc([C]34[CH]5[CH]6[CH]7[CH]3[Fe]6754389%10[CH]4[CH]3[CH]8[CH]9[CH]4%10)nn2)C[C@H]1C(=O)N[C@@H](Cc1c[nH]c2ccccc12)C(=O)N[C@@H](CO)C(=O)N[C@@H](CCC(=O)O)C(=O)N[C@@H](C)C(=O)N[C@@H](CCSC)C(=O)N[C@@H](CCSC)C(N)=O)[C@@H](C)CC` (stereo partly drawn) [HNG-156, RINNIXWSEAMM, where residue 6 is (2s, 4s)-4-(4-ferrocenyl-1H-1, 2, 3-triazol-1-yl) pyrrolidine-2-carboxylic acid] the “affinity for gp 120 from two other HIV-1 strains” value [1] was “similarly high affinity”, the dual antagonism function [2] was “dual antagonism function” and the “mAb F105 binding inhibition” value [3] was “inhibited to near completion”.

With `CC[C@H](C)[C@H](NC(=O)[C@@H](N)CCCNC(=N)N)C(=O)N[C@@H](CC(N)=O)C(=O)N[C@@H](CC(N)=O)C(=O)N[C@H](C(=O)N1C[C@@H](n2cc(-c3cccc4ccccc34)nn2)C[C@H]1C(=O)N[C@@H](Cc1c[nH]c2ccccc12)C(=O)N[C@@H](CO)C(=O)N[C@@H](CCC(=O)O)C(=O)N[C@@H](C)C(=O)N[C@@H](CCSC)C(=O)N[C@@H](CCSC)C(N)=O)[C@@H](C)CC` [HNG-125] the dual antagonism function [2] was “dual antagonism function”.

For `CC[C@H](C)[C@H](NC(=O)[C@@H](N)CCCNC(=N)N)C(=O)N[C@@H](CC(N)=O)C(=O)N[C@@H](CC(N)=O)C(=O)N[C@H](C(=O)N1CCC[C@H]1C(=O)N[C@@H](Cc1c[nH]c2ccccc12)C(=O)N[C@@H](CO)C(=O)N[C@@H](CCC(=O)O)C(=O)N[C@@H](C)C(=O)N[C@@H](CCSC)C(=O)N[C@@H](CCSC)C(=O)O)[C@@H](C)CC` [12p1], the “inhibition of the gp120-4dCD4 interaction” value [4] is given as “found to inhibit” and the “inhibition of the gp120-17b interaction” value [5] is given as “found to inhibit”.

B1: CV-N: 11 kD protein originally isolated from the cyanobacteria Nostoc ellipsosporum (protein)
chain: LGKFSQTCYNSAIQGSVLTSTCERTNGGYNTSSIDLNSVIENVDGSLKWQPSNFIETCRNTQLAGSSELAAECKTRAQQFVSTKINLDDHIANIDGTLKYE
For B1, the “in vivo efficacy, vaginal challenge” value [6] is listed as “In vivo efficacy has also be shown”, the “inactivation of virus strains” value [7] is listed as “inactivates a broad range of M-tropic and T-tropic strains” and the “cytotoxic effects in ectocervical explants” value [8] is listed as “without cytotoxic effects”. For the same molecule, the “infection of human ectocervical explants” value [8] was “blocks HIV-1 BaL infection”, the “protection against virus challenge” value ([9]; gel formulations applied rectally, male macaques) was “protected against challenge” and the clinically adverse effects ([9]; rectal and vaginal macaque in vivo assays) was “no clinically adverse effects”.
